According to patent US20020026053A1, “Novel 3-(substituted) -2- indolinones compounds and use thereof as inhibitors of protein kinase activity” (priority 1997, published 2002):

Molecular target: T1, Met receptor (EGFR/Met chimeric cells, EMR) (Homo sapiens, UniProt P08581)
T1 construct: expressed in transfected cells; the other entry of the earlier key: EGFR (P00533, Epidermal growth factor receptor)
Assay: Met Autophosphorylation Assay
Assay type: biochemical
Conditions: protocol P.130
Outline: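 Met phosphorylation was measured by capture ELISA. Lysates (90 μg/100 μl, HNTG plus 1 mM PMSF) from transiently transfected EGFR/Met chimera (EMR) cells were bound for 60 min at room temperature to wells holding rabbit anti-Met (C-28) on goat anti-rabbit coat. Phosphotyrosine was the read-out.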

T1 sequence (P08581 with tags, fused parts or gaps): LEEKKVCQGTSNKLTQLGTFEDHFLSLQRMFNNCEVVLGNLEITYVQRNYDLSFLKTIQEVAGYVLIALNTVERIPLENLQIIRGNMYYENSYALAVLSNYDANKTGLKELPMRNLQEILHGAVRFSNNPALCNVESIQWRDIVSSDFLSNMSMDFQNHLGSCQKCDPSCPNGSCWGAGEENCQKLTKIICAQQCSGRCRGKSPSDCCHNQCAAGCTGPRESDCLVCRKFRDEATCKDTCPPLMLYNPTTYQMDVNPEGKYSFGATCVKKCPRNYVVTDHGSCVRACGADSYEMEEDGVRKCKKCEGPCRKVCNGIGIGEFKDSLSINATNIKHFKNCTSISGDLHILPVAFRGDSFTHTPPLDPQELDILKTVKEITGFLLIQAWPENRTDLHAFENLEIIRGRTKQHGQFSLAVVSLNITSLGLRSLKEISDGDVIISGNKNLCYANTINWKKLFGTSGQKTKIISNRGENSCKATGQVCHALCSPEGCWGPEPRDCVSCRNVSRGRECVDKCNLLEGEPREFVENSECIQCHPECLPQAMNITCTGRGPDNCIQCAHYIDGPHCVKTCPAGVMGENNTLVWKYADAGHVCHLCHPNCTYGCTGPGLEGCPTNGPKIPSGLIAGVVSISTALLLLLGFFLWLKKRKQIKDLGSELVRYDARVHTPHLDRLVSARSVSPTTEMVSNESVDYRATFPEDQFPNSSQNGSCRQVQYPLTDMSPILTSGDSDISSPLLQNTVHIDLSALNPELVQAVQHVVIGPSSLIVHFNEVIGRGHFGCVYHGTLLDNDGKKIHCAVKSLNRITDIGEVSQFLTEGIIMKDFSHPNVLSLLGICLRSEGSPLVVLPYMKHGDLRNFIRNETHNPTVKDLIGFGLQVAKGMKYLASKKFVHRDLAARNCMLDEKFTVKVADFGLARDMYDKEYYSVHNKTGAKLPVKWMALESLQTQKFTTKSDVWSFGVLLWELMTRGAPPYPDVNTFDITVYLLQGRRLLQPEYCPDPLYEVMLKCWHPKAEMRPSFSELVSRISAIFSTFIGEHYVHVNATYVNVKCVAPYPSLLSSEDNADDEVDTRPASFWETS

Structure (SMILES)	Met Kinase % Inhibition (P.130) [%]
Cc1c(Br)cc(Br)c2c1C(=Cc1cccc(F)c1)C(=O)N2 [10736/H07]	31.0
Cc1c(Br)cc(Br)c2c1C(=Cc1ccccc1F)C(=O)N2 [10736/H08]	33.4
CCc1ccc(C=C2C(=O)Nc3c(Br)cc(Br)c(C)c32)cc1 [10736/H09]	32.1
COc1cccc(C=C2C(=O)Nc3c(Br)cc(Br)c(C)c32)c1 [10736/H10]	32.1
Cc1c(Br)cc(Br)c2c1C(=Cc1ccccc1Cl)C(=O)N2 [10736/H11]	41.5
CCOc1ccc(C=C2C(=O)Nc3c(Br)cc(Br)cc32)cc1 [10737/A02]	53.2
Cc1ccc(C=C2C(=O)Nc3c(Br)cc(Br)cc32)c(C)c1 [10737/A03]	58.9
O=C1Nc2c(Br)cc(Br)cc2C1=Cc1cc(F)ccc1F [10737/A04]	63.5
O=C1Nc2c(Br)cc(Br)cc2C1=Cc1cccc(F)c1F [10737/A05]	58.9
COc1ccc(C=C2C(=O)Nc3c(Br)cc(Br)cc32)cc1F [10737/A06]	57.1
Cc1ccc(C)c(C=C2C(=O)Nc3c(Br)cc(Br)cc32)c1 [10737/A07]	30.1
O=C1Nc2c(Br)cc(Br)cc2C1=Cc1ccc2ccccc2c1 [10737/A08]	28.3
O=C1Nc2c(Br)cc(Br)cc2C1=Cc1ccc(Oc2ccccc2)cc1 [10737/A09]	47.9
CC(C)(C)c1ccc(Oc2cccc(C=C3C(=O)Nc4c(Br)cc(Br)cc43)c2)cc1 [10737/A10]	15.5
O=C1Nc2c(Br)cc(Br)cc2C1=Cc1cccc(Oc2cccc(C(F)(F)F)c2)c1 [10737/A11]	25.3
CCOc1ccc(C=C2C(=O)Nc3ccc(I)cc32)cc1 [10737/B02]	85.0
Cc1ccc(C=C2C(=O)Nc3ccc(I)cc32)c(C)c1 [10737/B03]	86.3
O=C1Nc2ccc(I)cc2C1=Cc1cc(F)ccc1F [10737/B04]	88.9
O=C1Nc2ccc(I)cc2C1=Cc1cccc(F)c1F [10737/B05]	89.5
COc1ccc(C=C2C(=O)Nc3ccc(I)cc32)cc1F [10737/B06]	84.7
Cc1ccc(C)c(C=C2C(=O)Nc3ccc(I)cc32)c1 [10737/B07]	82.5
O=C1Nc2ccc(I)cc2C1=Cc1ccc2ccccc2c1 [10737/B08]	84.1
O=C1Nc2ccc(I)cc2C1=Cc1ccc(Oc2ccccc2)cc1 [10737/B09]	77.0
CC(C)(C)c1ccc(Oc2cccc(C=C3C(=O)Nc4ccc(I)cc43)c2)cc1 [10737/B10]	84.7
O=C1Nc2ccc(I)cc2C1=Cc1cccc(Oc2cccc(C(F)(F)F)c2)c1 [10737/B11]	78.8
CCOc1ccc(C=C2C(=O)Nc3ccc(Br)c(C)c32)cc1 [10737/C02]	30.6

Structure (SMILES)	Met Kinase % Inhibition (P.130) [%]
Cc1ccc(C=C2C(=O)Nc3ccc(Br)c(C)c32)c(C)c1 [10737/C03]	52.5
Cc1c(Br)ccc2c1C(=Cc1cc(F)ccc1F)C(=O)N2 [10737/C04]	82.0
Cc1c(Br)ccc2c1C(=Cc1cccc(F)c1F)C(=O)N2 [10737/C05]	81.8
COc1ccc(C=C2C(=O)Nc3ccc(Br)c(C)c32)cc1F [10737/C06]	38.6
Cc1ccc(C)c(C=C2C(=O)Nc3ccc(Br)c(C)c32)c1 [10737/C07]	57.5
Cc1c(Br)ccc2c1C(=Cc1ccc3ccccc3c1)C(=O)N2 [10737/C08]	54.1
Cc1c(Br)ccc2c1C(=Cc1ccc(Oc3ccccc3)cc1)C(=O)N2 [10737/C09]	27.6
Cc1c(Br)ccc2c1C(=Cc1cccc(Oc3ccc(C(C)(C)C)cc3)c1)C(=O)N2 [10737/C10]	60.0
Cc1c(Br)ccc2c1C(=Cc1cccc(Oc3cccc(C(F)(F)F)c3)c1)C(=O)N2 [10737/C11]	34.0
CCOc1ccc(C=C2C(=O)Nc3ccc(S(=O)(=O)NC)cc32)cc1 [10737/D02]	27.8
CNS(=O)(=O)c1ccc2c(c1)C(=Cc1ccc(C)cc1C)C(=O)N2 [10737/D03]	38.6
CNS(=O)(=O)c1ccc2c(c1)C(=Cc1cc(F)ccc1F)C(=O)N2 [10737/D04]	33.5
CNS(=O)(=O)c1ccc2c(c1)C(=Cc1cccc(F)c1F)C(=O)N2 [10737/D05]	41.8
CNS(=O)(=O)c1ccc2c(c1)C(=Cc1ccc(OC)c(F)c1)C(=O)N2 [10737/D06]	37.4
CNS(=O)(=O)c1ccc2c(c1)C(=Cc1cc(C)ccc1C)C(=O)N2 [10737/D07]	37.0
CNS(=O)(=O)c1ccc2c(c1)C(=Cc1ccc3ccccc3c1)C(=O)N2 [10737/D08]	42.0
CNS(=O)(=O)c1ccc2c(c1)C(=Cc1ccc(Oc3ccccc3)cc1)C(=O)N2 [10737/D09]	36.0
CNS(=O)(=O)c1ccc2c(c1)C(=Cc1cccc(Oc3ccc(C(C)(C)C)cc3)c1)C(=O)N2 [10737/D10]	24.8
CNS(=O)(=O)c1ccc2c(c1)C(=Cc1cccc(Oc3cccc(C(F)(F)F)c3)c1)C(=O)N2 [10737/D11]	43.4
CCOc1ccc(C=C2C(=O)Nc3ccc(S(=O)(=O)Nc4ccc(C(F)(F)F)cc4)cc32)cc1 [10737/E02]	53.0
Cc1ccc(C=C2C(=O)Nc3ccc(S(=O)(=O)Nc4ccc(C(F)(F)F)cc4)cc32)c(C)c1 [10737/E03]	13.4
O=C1Nc2ccc(S(=O)(=O)Nc3ccc(C(F)(F)F)cc3)cc2C1=Cc1cc(F)ccc1F [10737/E04]	79.3
O=C1Nc2ccc(S(=O)(=O)Nc3ccc(C(F)(F)F)cc3)cc2C1=Cc1cccc(F)c1F [10737/E05]	80.9
COc1ccc(C=C2C(=O)Nc3ccc(S(=O)(=O)Nc4ccc(C(F)(F)F)cc4)cc32)cc1F [10737/E06]	57.8
Cc1ccc(C)c(C=C2C(=O)Nc3ccc(S(=O)(=O)Nc4ccc(C(F)(F)F)cc4)cc32)c1 [10737/E07]	43.1
O=C1Nc2ccc(S(=O)(=O)Nc3ccc(C(F)(F)F)cc3)cc2C1=Cc1ccc2ccccc2c1 [10737/E08]	61.9
